In article PMC6749521, “The Effect of Flavonoid Aglycones on the CYP1A2, CYP2A6, CYP2C8 and CYP2D6 Enzymes Activity” (Molecules, 2019):
Like-named read-outs stand apart in the source and are kept apart here.

Legend:
CYP3A4 = system: CYP3A4; design: method as in PMID 30301254; settings: statistical significance p < 0.1; cited from earlier work
CYP2A6 [1] = target: T1, CYP2A6 (Homo sapiens, UniProt P11509); test: CYP2A6 enzyme activity, coumarin 7-hydroxylation (MDI, TDI, DI assays), recombinant baculosomes; settings: for Inhibition of CYP2A6 enzyme activity / activity at 30 min, 1 µM: 1 µM flavonoid; for activity at 30 min, 1 µM: human, pH 7.4, probe coumarin (7-hydroxylation), 10 µM, Residual CYP2A6 enzyme activity
T1 sequence (P11509 1-494): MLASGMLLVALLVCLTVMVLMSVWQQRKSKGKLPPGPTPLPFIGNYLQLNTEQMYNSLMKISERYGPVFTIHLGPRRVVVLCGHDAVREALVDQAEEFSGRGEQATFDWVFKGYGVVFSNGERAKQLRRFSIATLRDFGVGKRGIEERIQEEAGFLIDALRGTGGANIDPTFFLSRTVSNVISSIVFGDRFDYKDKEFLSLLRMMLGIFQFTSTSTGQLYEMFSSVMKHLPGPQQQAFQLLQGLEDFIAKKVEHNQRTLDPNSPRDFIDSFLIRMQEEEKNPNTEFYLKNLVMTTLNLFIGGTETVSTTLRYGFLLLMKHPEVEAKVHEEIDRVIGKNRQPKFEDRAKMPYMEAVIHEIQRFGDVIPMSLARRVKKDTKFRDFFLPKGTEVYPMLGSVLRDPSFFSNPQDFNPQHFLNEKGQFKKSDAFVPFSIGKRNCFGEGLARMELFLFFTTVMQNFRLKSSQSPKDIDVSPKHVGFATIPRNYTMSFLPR
Protocol: (§1) The recombinant baculosomes with hyperexpressed cytochromes P450 (1A2, 2A6, 2C8, and 2D6) and coexpressed NADPH cytochrome P450 reductase and cytochrome b5 were used as a source of enzyme. Baculosomes were commercially obtained from Thermo Fisher Scientific (Waltham, MA, USA), and all other chemicals from Sigma-Aldrich if not otherwise indicated. A 1.0 M solution phosphate buffer of pH 7.4 was prepared in house. NADPH generating system was prepared of 0.1 M glucose-6-phosphate, 10 mg mL^−1 NADP^+, and 1000 IU mL^−1 glucose-6-phosphate dehydrogenase in ratio 100:50:2 (v/v/v).
The aromatic hydroxylation of coumarin at the position 7 was used as a marker reaction for CYP2A6. The incubation conditions were the same as for CYP1A2 enzyme (vide supra) unless otherwise stated. The final concentration of coumarin was 10 µM, while the incubation time was extended to 30 min.
HPLC-DAD analysis was conducted on the same system as the CYP1A2 enzyme with the following modifications: The gradient timetable (t/min, %B) was (0, 20), (1.5, 20), (10, 70), (11, 20), (17, 20), and the detection wavelength was 330 nm. The retention time of the substrate (coumarin) was 7.5 min, while the product (7-hydroxycoumarin) was detected at 4.8 min. The amount of generated product was determined as the area under the curve based on the calibration curve of the standard.
(§2) Three types of experiments were conducted to determine metabolism dependent inhibition, time dependent inhibition, and direct inhibition of CYP1A2, CYP2A6, CYP2C8, and CYP2D6 enzymes.
(§3) To determine metabolism dependent inhibition (MDI assay), the flavonoid was first preincubated with the enzyme with the addition of the generating system for 30 min, after which the marker substrate was added to determine residual enzyme activity (as described above for each enzyme).
(§4) If metabolism dependent inhibition was determined, time dependent inhibition and direct inhibition were tested. Time dependent inhibition (TDI assay) was assessed by preincubating the flavonoid and enzyme, without the generating system, after which residual activity was determined by adding the NADPH generating system along with the substrate (as described above for each enzyme).
(§5) The direct inhibition assay (DI assay) was conducted without preincubation, i.e., the NADPH generating system was added to the incubation mixture containing flavonoid and substrate following the experimental set-up described above for each individual cytochrome P450 enzyme.
(§6) Pure time dependent inhibitors require time to interact with the enzyme. Thus, TDI inhibitors will show a reduction of enzyme activity in assays with preincubations, i.e., the MDI and TDI assays, but not in the DI assay (no preincubation). […] DI inhibitors will reduce enzyme activity in all three assays (MDI, TDI, and DI).
(§7) All incubations were conducted in triplicate. The results are expressed as the residual activity of the enzyme, i.e., the percentage of product generated in incubation with the addition of flavonoid in ratio to the control without flavonoid. The statistical significance was tested with Student’s t-test in the program R (The R Project for Statistical Computing, Vienna, Austria).

CYP2A6 [2] = settings: ref 31 (Boonruanga et al.), cited from earlier work
CYP2C8 = target: T2, CYP2C8 (Homo sapiens, UniProt P10632); test: CYP2C8 enzyme activity, paclitaxel 6α-hydroxylation (MDI, TDI, DI assays), recombinant baculosomes; format: biochemical; settings: for Inhibition of CYP2C8 paclitaxel 6-α-hydroxylation / CYP2C8 enzyme activity in the TDI assay: 1 µM flavonoid; for Type of CYP2C8 inhibition: concluded from MDI, TDI, DI assays at 1 µM
T2 construct: purchased Thermo Fisher Scientific; host or cells: baculosomes
T2 sequence (P10632 1-490): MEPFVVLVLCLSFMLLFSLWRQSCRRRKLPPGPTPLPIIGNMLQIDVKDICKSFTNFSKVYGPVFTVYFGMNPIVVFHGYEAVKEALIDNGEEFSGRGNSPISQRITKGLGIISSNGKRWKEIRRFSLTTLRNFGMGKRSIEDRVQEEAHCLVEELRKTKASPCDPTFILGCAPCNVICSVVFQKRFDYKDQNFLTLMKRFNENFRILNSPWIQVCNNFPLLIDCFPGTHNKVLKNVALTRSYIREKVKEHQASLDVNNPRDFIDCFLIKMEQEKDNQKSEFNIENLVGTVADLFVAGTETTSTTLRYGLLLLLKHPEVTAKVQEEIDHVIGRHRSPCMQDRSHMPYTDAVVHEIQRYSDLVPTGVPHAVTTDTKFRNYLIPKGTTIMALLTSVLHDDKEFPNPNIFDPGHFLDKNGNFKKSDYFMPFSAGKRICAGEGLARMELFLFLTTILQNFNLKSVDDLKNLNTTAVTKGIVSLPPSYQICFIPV
Protocol: as §1
Paclitaxel 6α-hydroxylation was used as a marker reaction for monitoring CYP2C8 enzyme activity (Figure 2). The incubation conditions were the same as for CYP1A2 enzyme (vide supra) unless otherwose stated. The final concentration of paclitaxel was 20 µM, while the incubation time was set to 30 min.
HPLC-DAD analysis was conducted on the same system as the CYP1A2 enzyme with the following modifications: The gradient timetable (t/min, %B) was (0, 50), (2, 50), (10, 90), (11, 50), (17, 50), and the detection wavelength was 227 nm. […] The amount of generated product was determined as the area under the curve based on the calibration curve of the standard.
as §2, §3, §4, §5, §6, §7

CYP1A2 [3] = system: CYP1A2; design: method as in ref 25 (Kim et al.); settings: recombinant cytochrome P450 system; ref 25 (Kim et al.); cited from earlier work
CYP1A2 [4] = target: T3, CYP1A2 (Homo sapiens, UniProt P05177); test: CYP1A2 enzyme activity, phenacetin O-deethylation (MDI, TDI, DI assays), recombinant baculosomes; settings: for activity at 15 min, 1 µM: human, pH 7.4, probe phenacetin (O-deethylation), 150 µM
T3 sequence (P05177 1-516): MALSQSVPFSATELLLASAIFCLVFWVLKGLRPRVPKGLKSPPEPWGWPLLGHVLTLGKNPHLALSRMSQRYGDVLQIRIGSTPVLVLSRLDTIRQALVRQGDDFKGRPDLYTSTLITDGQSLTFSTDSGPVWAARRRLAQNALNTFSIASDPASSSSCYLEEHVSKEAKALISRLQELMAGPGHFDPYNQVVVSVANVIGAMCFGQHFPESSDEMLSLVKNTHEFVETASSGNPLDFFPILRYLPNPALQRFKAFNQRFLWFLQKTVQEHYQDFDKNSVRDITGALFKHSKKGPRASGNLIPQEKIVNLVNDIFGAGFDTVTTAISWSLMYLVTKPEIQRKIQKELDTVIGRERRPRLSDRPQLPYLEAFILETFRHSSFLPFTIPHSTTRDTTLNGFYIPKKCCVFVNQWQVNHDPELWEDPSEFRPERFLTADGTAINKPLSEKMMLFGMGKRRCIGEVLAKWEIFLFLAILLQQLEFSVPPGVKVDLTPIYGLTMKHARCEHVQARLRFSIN
Protocol: as §1
Phenacetine O-deethylation was used as a marker reaction for monitoring CYP1A2 enzyme activity (Figure 2). Incubations of 100 µL were conducted at the temperature of 37 °C. The pH of the incubation mixture was set at 7.4 using a potassium phosphate buffer (final concentration 50 mM). The total amount of CYP1A2 enzyme was 5 pmol, and the final concentration of substrate was 150 µM. Residual activity was determined by incubating the flavonoid (1 µM) with phenacetine as a substrate for 15 min, with or without preincubation, depending of the type of inhibition assay. Reactions were started by the addition of 15 µL of NADPH generating system, while the reactions were stopped by the addition of 1 mL 1% formic acid in acetonitrile. After centrifugation (10 min, 1900× g), the clear solution was transferred to a vial for HPLC analysis.
HPLC analysis was performed on Agilent 1100 instrument (Santa Clara, CA, USA) coupled with a diode array detector (DAD) on Luna C18 column (4.6 × 150 mm, 3 μm). The gradient method was used for separation. Mobile phase A consisted of water, acetonitrile, and glacial acetic acid in the volume ratio of 90:10:0.1, while mobile phase B contained the same solvents in the ratio 10:90:0.1. The following gradient timetable was used (t/min, %B): (0, 0), (2, 0), (13, 55), (14, 0), (20, 0). The flow rate was 1 mL/min, and chromatograms were recorded at 254 nm. Volume of incubation injected to the column was 15 µL. […] The amount of generated product (acetaminophen) was determined as the area under the curve based on the calibration curve of the standard.
as §2, §3, §4, §5, §6
All incubations were conducted in triplicate. The results are expressed as the residual activity of the enzyme, i.e., the percentage of product generated in incubation with the addition of flavonoid in ratio to the control without flavonoid.

rat liver microsomes = system: rat liver microsomes; design: method as in ref 24 (Siess et al.); settings: ref 24 (Siess et al.), cited from earlier work
CYP1A2 [5] = system: CYP1A2; design: method as in ref 23 (Lee et al.); settings: ref 23 (Lee et al.); cited from earlier work
[6] = concluded from MDI, TDI, DI assays at 1 µM

COc1ccc(-c2cc(=O)c3c(O)cc(O)cc3o2)cc1 [acacetin]
Inhibition of CYP3A4 metabolic activity (CYP3A4): inhibition

O=c1cc(-c2ccc(O)cc2)oc2cc(O)cc(O)c12 [apigenin]
Inhibition of CYP2A6 enzyme activity (CYP2A6 [1]): inhibited | activity at 30 min, 1 µM (CYP2A6 [1]; direct inhibition (DI) assay): 48 ± 1% | activity at 30 min, 1 µM (CYP2A6 [1]; metabolism dependent inhibition (MDI) assay, coumarin 10 µM): 47 ± 7% | IC50 (CYP2A6 [2]; read-out: IC50, direct inhibition assay): 900 ± 70 nM | IC50 (CYP2A6 [2]; read-out: IC50, metabolism dependent inhibition assay): 770 ± 160 nM

COc1cc(OC)c2c(=O)cc(-c3ccccc3)oc2c1 [chrysin-dimethylether]
Inhibition of CYP2C8 paclitaxel 6-α-hydroxylation (CYP2C8): inhibition | CYP2C8 enzyme activity in the TDI assay (CYP2C8): reduction of enzyme activity was not observed | Type of CYP2C8 inhibition (CYP2C8): mixed reversible and irreversible inhibitors | Inhibition of CYP3A4 metabolic activity (CYP3A4): inhibition

O=c1cc(-c2ccccc2)oc2cc(O)cc(O)c12 [chrysin]
Inhibition of CYP2C8 paclitaxel 6-α-hydroxylation (CYP2C8): inhibition | CYP2C8 enzyme activity in the TDI assay (CYP2C8): reduction of enzyme activity was not observed | Type of CYP2C8 inhibition (CYP2C8): mixed reversible and irreversible inhibitors | Type of CYP1A2 inhibition, ethoxyresorufin O-deethylation (CYP1A2 [3]): reversible mix inhibition | Inhibition of CYP3A4 metabolic activity (CYP3A4): inhibition | Inhibition of CYP1A2 activity (CYP1A2 [4]; 1 µM flavonoid): inhibited | Residual CYP1A2 enzyme activity, time dependent inhibition (TDI) assay (CYP1A2 [4]; 1 µM flavonoid, preincubation without generating system): complete inhibition | Type of CYP1A2 inhibition (CYP1A2 [4]; [6]): reversible | activity at 15 min, 1 µM (CYP1A2 [4]): 18 ± 4% | activity at 15 min, 1 µM (CYP1A2 [4]; Residual CYP1A2 enzyme activity, direct inhibition (DI) assay, 1 µM flavonoid, no preincubation): 23 ± 6% | Type of inhibition of ethoxy- and pentoxy-resorufin dealkylation (rat liver microsomes): mix type reversible | Type of CYP1A2 inhibition, N3-demethylation of caffeine (CYP1A2 [5]): reversible, competitive inhibition

O=c1cc(-c2ccccc2)oc2ccccc12 [flavone]
Inhibition of CYP3A4 metabolic activity (CYP3A4): inhibition

O=c1c(O)c(-c2ccccc2)oc2cc(O)cc(O)c12 [galangin]
Inhibition of CYP2A6 enzyme activity (CYP2A6 [1]): inhibited | Inhibition of CYP2C8 paclitaxel 6-α-hydroxylation (CYP2C8): inhibition | CYP2C8 enzyme activity in the TDI assay (CYP2C8): reduction of enzyme activity was not observed | Type of CYP2C8 inhibition (CYP2C8): mixed reversible and irreversible inhibitors | Inhibition of CYP3A4 metabolic activity (CYP3A4): inhibition

COc1ccc([C@@H]2CC(=O)c3c(O)cc(O)cc3O2)cc1O [hesperetin]
Inhibition of CYP3A4 metabolic activity (CYP3A4): inhibition

O=c1c(O)c(-c2ccc(O)cc2O)oc2cc(O)cc(O)c12 [morin]
Inhibition of CYP3A4 metabolic activity (CYP3A4): inhibition | Inhibition of CYP1A2 activity (CYP1A2 [4]; 1 µM flavonoid): inhibited | Inhibition constant relative to chrysin (rat liver microsomes; morin versus chrysin): 16 fold | Ki (rat liver microsomes; read-out: Inhibition constant, ethoxy- and pentoxy-resorufin dealkylation): 5000 nM | Type of inhibition of ethoxy- and pentoxy-resorufin dealkylation (rat liver microsomes): mix type reversible

O=C1C[C@@H](c2ccccc2)Oc2cc(O)cc(O)c21 [pinocembrin]
Inhibition of CYP3A4 metabolic activity (CYP3A4): inhibition

COc1ccc(-c2oc3cc(O)cc(O)c3c(=O)c2O)cc1O [tamarixetin]
Inhibition of CYP3A4 metabolic activity (CYP3A4): inhibition

COc1ccc(-c2cc(=O)c3c(OC)c(OC)c(OC)c(OC)c3o2)cc1 [tangeretin]
Inhibition of CYP2A6 enzyme activity (CYP2A6 [1]): inhibited | Type of CYP2A6 inhibition (CYP2A6 [1]; [6]): direct inhibitor | Inhibition of CYP3A4 metabolic activity (CYP3A4): inhibition
